The results in this text go back to patent US20240158348A1, “HERBICIDAL CYCLIC AMIDES N-SUBSTITUTED WITH A HALOALKYLSULFONYLANILIDE GROUP” (FMC Corporation, priority 2021, published 2024).

Common to all, as to format: in vivo
Assay [1] concerns ragweed (common ragweed, Ambrosia artemisiifolia). Description: Test C preemergence, ragweed. The settings on record: 0 is no effect, 100 is complete control. A digest of the protocol: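 Steps: sow in loam soil blended with sand; treat soil preemergence by directed spray, or treat young plants (2–10 cm, one to two leaves) postemergence; hold in greenhouse 10 or 12 days; rate injury visually relative to untreated controls on a 0–100 scale.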

For assay [2], the system named is goosegrass (Eleusine indica). In words: Test C postemergence, goosegrass. The settings on record: for Goosegrass plant response rating: visual injury, 0 to 100 scale (0 no effect, 100 complete control); for Plant response rating (0 to 100 scale), Goosegrass: 0 is no effect, 100 is complete control. In outline:
(§1)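 Greenhouse pot test. Compounds in a non-phytotoxic solvent with surfactant were applied to a loam–sand soil mix either preemergence as a directed spray or postemergence to plants at the one- to two-leaf stage; 0–100 visual ratings followed after 10 or 12 days.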

In a further assay the test system is soybean (Glycine max). In words: Test C preemergence, soybean. The settings on record: 0 is no effect, 100 is complete control. A digest of the protocol: as §1
The subject of assay [3] is pigweed, palmer (palmer amaranth, Amaranthus palmeri). In words: Test C preemergence, palmer amaranth. The settings on record: 0 is no effect, 100 is complete control. A digest of the protocol:
as §1

Assay [4] deals with oat, wild (wild oat, Avena fatua). Description: Test C preemergence, wild oat. To be noted: 0 is no effect, 100 is complete control. A digest of the protocol:
as §1

Assay [5] relates to ducksalad (Heteranthera limosa). In words: Test D flooded paddy test, ducksalad. Details: key: 0 = no effect, 100 = complete control. To be noted: 250 g ai/ha, Flood; applied to paddy water at 2-leaf stage; visual rating after 13 days; scale 0 (no effect) to 100 (complete control). In outline: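 Test compounds applied directly to paddy water after pots were flooded to 3 cm above soil, with plants at 2-leaf stage; depth held throughout. Greenhouse for 13 days, then visual rating versus controls on 0–100 scale (0 no effect, 100 complete control); dash means no result.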

Assay [6] relates to horseweed (Erigeron canadensis). Description: Test C postemergence, horseweed. The settings on record: for Horseweed plant response rating: visual injury, 0 to 100 scale (0 no effect, 100 complete control). In outline: as §1
The next assay deals with corn (Zea mays). In words: Test C postemergence, corn. The settings on record: for Corn plant response rating: visual injury, 0 to 100 scale (0 no effect, 100 complete control); for Plant response rating (0 to 100 scale), Corn: 0 is no effect, 100 is complete control.
Assay [7] concerns blackgrass (Alopecurus myosuroides). In words: Test C preemergence, blackgrass. The settings on record: 0 is no effect, 100 is complete control. In outline: as §1

For `Cc1c(N2CCC(OC3CCC3)C2=O)cc(N(COC(=O)C(C)(C)C)S(=O)(=O)C(F)(F)F)c(C)c1C` (centres unmarked) [Compound 51], the “Plant response rating (0 to 100 scale), Ragweed” value (shortened to “Plant response rating … Ragweed”) came to 0 in [1] (31 g ai/ha Preemergence) and 70 in [1] (125 g ai/ha Preemergence). In addition, the “Goosegrass plant response rating” value in assay [2] (31 g ai/ha Postemergence) was 0; in assay [2] (125 g ai/ha Postemergence), 20. Moreover, the figures for the “Plant response rating (0 to 100 scale), Soybean” value (shortened to “Plant response rating … Soybean”) with soybean (Glycine max) (31 g ai/ha Preemergence) and in the assay with soybean (Glycine max) (125 g ai/ha Preemergence) were 0 and 30, respectively. Further, the “Plant response rating (0 to 100 scale), Pigweed, Palmer” value (shortened to “Plant response rating … Palmer”) in assay [3] (31 g ai/ha Preemergence) is 20; in assay [3] (125 g ai/ha Preemergence) it was 60. The “Plant response rating (0 to 100 scale), Oat, Wild” value (from here on “Plant response rating … Wild”) turned out to be 20 in assay [4] (31 g ai/ha Preemergence) and 50 in [4] (125 g ai/ha Preemergence). In addition, the “Plant response rating, Ducksalad” value in assay [5] was determined as 85. The results for the “Horseweed plant response rating” value in assay [6] (31 g ai/ha Postemergence) and in [6] (125 g ai/ha Postemergence) were 60 and 90, respectively. Further, the entries for the “Corn plant response rating” value with corn (Zea mays) (31 g ai/ha Postemergence) and in the assay on corn (Zea mays) (125 g ai/ha Postemergence) were 0 and 60, respectively.

`Cc1cc(C)c(N2CCC(OC3CC3)C2=O)cc1NS(=O)(=O)C(F)(F)F` (single isomer, unassigned) [Compound 30]: the “Plant response rating … Ragweed” value in assay [1] (31 g ai/ha Preemergence) and in assay [1] (125 g ai/ha Preemergence) was 100 each time. Moreover, the “Goosegrass plant response rating” value in assay [2] (31 g ai/ha Postemergence) came to 80. For the same compound, the “Plant response rating (0 to 100 scale), Goosegrass” value in assay [2] (125 g ai/ha Postemergence) came to 90. Also, the “Plant response rating … Soybean” value in the assay on soybean (Glycine max) (31 g ai/ha Preemergence) was 80; with soybean (Glycine max) (125 g ai/ha Preemergence), 90. The “Plant response rating … Palmer” value in [3] (31 g ai/ha Preemergence) and in assay [3] (125 g ai/ha Preemergence) was 100 in each case. In addition, the “Plant response rating … Wild” value in assay [4] (31 g ai/ha Preemergence) was found to be 80; in assay [4] (125 g ai/ha Preemergence) it was 100. For the same compound, the “Plant response rating, Ducksalad” value in assay [5] is reported as 90. In the assay on corn (Zea mays) (31 g ai/ha Postemergence), the “Corn plant response rating” value was found to be 90. In addition, the “Plant response rating (0 to 100 scale), Corn” value in the assay on corn (Zea mays) (125 g ai/ha Postemergence) stood at 90. For the same compound, the “Plant response rating (0 to 100 scale), Blackgrass” value in assay [7] (31 g ai/ha Preemergence) turned out to be 80; in assay [7] (125 g ai/ha Preemergence), 100.

On to `Cc1cc(C)c(N(COC(=O)C(C)(C)C)S(=O)(=O)C(F)(F)F)cc1N1CCC(OCC2CC2)C1=O` (centres unmarked) [Compound 53], for which the “Plant response rating … Ragweed” value in assay [1] (31 g ai/ha Preemergence) was found to be 60; in assay [1] (125 g ai/ha Preemergence) it was 70. The “Goosegrass plant response rating” value in assay [2] (31 g ai/ha Postemergence) is on record as 60; in assay [2] (125 g ai/ha Postemergence) it was 90. Moreover, the “Plant response rating … Soybean” value with soybean (Glycine max) (31 g ai/ha Preemergence) is listed as 20; in the assay with soybean (Glycine max) (125 g ai/ha Preemergence), 40. The figures for the “Plant response rating … Palmer” value in [3] (31 g ai/ha Preemergence) and in assay [3] (125 g ai/ha Preemergence) were 30 and 90, respectively. The entries for the “Plant response rating … Wild” value in assay [4] (31 g ai/ha Preemergence) and in assay [4] (125 g ai/ha Preemergence) were 0 and 90, respectively. Besides, the “Plant response rating, Ducksalad” value in [5] is on record as 70. In addition, the “Horseweed plant response rating” value in assay [6] (31 g ai/ha Postemergence) is 80; in assay [6] (125 g ai/ha Postemergence), 90. The figures for the “Corn plant response rating” value with corn (Zea mays) (31 g ai/ha Postemergence) and in the assay with corn (Zea mays) (125 g ai/ha Postemergence) were 20 and 60, respectively.

With `Cc1cc(C)c(N2CC/C(=N\O)C2=O)cc1NS(=O)(=O)C(F)(F)F` [Compound 10, 1,1,1-trifluoro-N-[5-[3-(hydroxyimino)-2-oxo-1-pyrrolidinyl]-2,4-dimethylphenyl]methanesulfonamide], the “Plant response rating … Ragweed” value is given as 0 in [1] (31 g ai/ha Preemergence) and 30 in [1] (125 g ai/ha Preemergence). Also, the “Goosegrass plant response rating” value in assay [2] (31 g ai/ha Postemergence) worked out at 90. In addition, the “Plant response rating (0 to 100 scale), Goosegrass” value in assay [2] (125 g ai/ha Postemergence) was determined as 90. Also, the “Plant response rating … Soybean” value in the assay with soybean (Glycine max) (31 g ai/ha Preemergence) amounted to 60; in the assay on soybean (Glycine max) (125 g ai/ha Preemergence), 70. The “Plant response rating … Palmer” value in assay [3] (31 g ai/ha Preemergence) came to 50; in assay [3] (125 g ai/ha Preemergence), 100. The “Plant response rating … Wild” value in [4] (31 g ai/ha Preemergence) worked out at 90; in assay [4] (125 g ai/ha Preemergence), 100. In addition, the “Plant response rating, Ducksalad” value in assay [5] is recorded as 90. Further, the “Horseweed plant response rating” value in assay [6] (31 g ai/ha Postemergence) was 80. Also, the “Plant response rating (0 to 100 scale), Horseweed” value in [6] (125 g ai/ha Postemergence, 0 is no effect, 100 is complete control) was 90. The “Corn plant response rating” value in the assay on corn (Zea mays) (31 g ai/ha Postemergence) amounted to 90. In the assay on corn (Zea mays) (125 g ai/ha Postemergence), the “Plant response rating (0 to 100 scale), Corn” value amounted to 90.

For the compound `Cc1c(N2CCC(OC3CC3)C2=O)cc(N(COC(=O)C(C)(C)C)S(=O)(=O)C(F)(F)F)c(C)c1C` (centres unmarked) [Compound 49], the “Plant response rating … Ragweed” value in [1] (31 g ai/ha Preemergence) and in assay [1] (125 g ai/ha Preemergence) was 100 each time. Moreover, the “Goosegrass plant response rating” value in assay [2] (31 g ai/ha Postemergence) stood at 20; in assay [2] (125 g ai/ha Postemergence), 80. The “Plant response rating … Soybean” value in the assay with soybean (Glycine max) (31 g ai/ha Preemergence) is recorded as 0; with soybean (Glycine max) (125 g ai/ha Preemergence), 40. Moreover, the “Plant response rating … Palmer” value in assay [3] (31 g ai/ha Preemergence) was found to be 30; in assay [3] (125 g ai/ha Preemergence), 100. For the same compound, the “Plant response rating … Wild” value is on record as 60 in assay [4] (31 g ai/ha Preemergence) and 90 in assay [4] (125 g ai/ha Preemergence). For the same compound, the “Plant response rating, Ducksalad” value in [5] is listed as 95. In assay [6] (125 g ai/ha Postemergence), the “Horseweed plant response rating” value was 100. For the same compound, the entries for the “Corn plant response rating” value in the assay on corn (Zea mays) (31 g ai/ha Postemergence) and in the assay with corn (Zea mays) (125 g ai/ha Postemergence) were 50 and 100, respectively.
